Data from US6656714B2, “Nucleic acids and proteins of a rat ganglioside GM1-specific α1→2 fucosyltransferase and uses thereof” (Northwest Hospital, priority 1999, dated 2003).

Assays:
α1→2FucT = α1→2FucT enzyme activity in liver of AAF-fed rats; type: in vivo; conditions: AAF-fed rat liver sample; none detected in normal liver
[1] = biological target: T1, full length rat hepatoma α1→2FucT (Rattus norvegicus, UniProt Q10984); assay: Enzyme assay of expressed recombinant full length α1→2FucT in homogenates of transfected COS-7 cells, transfer of [14C]fucose to GM1 (TLC); type: biochemical; conditions: for transfer to GM1 in the presence of additive, compared with no detergent or phospholipid: CHAPSO 100 μg, phosphatidylglycerol 250 μg
T1 construct: Full length α1→2FucT cDNA was then cloned into pcDNA 3 vector; expressed in transfected cells; host or cells: COS-7 cells, transient transfection, sonicated homogenate
T1 sequence (Q10984 1-380 isoform Q10984-2): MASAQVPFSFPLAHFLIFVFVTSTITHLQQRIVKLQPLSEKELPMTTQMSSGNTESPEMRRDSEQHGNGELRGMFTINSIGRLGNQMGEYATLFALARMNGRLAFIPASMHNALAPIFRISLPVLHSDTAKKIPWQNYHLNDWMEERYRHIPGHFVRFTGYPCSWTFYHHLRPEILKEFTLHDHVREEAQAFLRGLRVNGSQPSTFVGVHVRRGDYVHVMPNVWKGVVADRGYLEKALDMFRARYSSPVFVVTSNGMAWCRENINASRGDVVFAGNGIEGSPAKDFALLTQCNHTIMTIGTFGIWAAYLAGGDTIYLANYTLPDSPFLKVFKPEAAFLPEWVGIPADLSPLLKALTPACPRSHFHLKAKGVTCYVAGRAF
From the text: Expression of full length α1→2FucT cDNA in transfected cells results in membrane-bound enzyme. COS-7 cells were transiently transfected by the DEAE-dextran method (Ausubel, F. M., et al., Current Protocols in Molecular Biology, Wiley, N.Y.) with either FL-RFT-pcDNA3 or FL-RFT(−)-pcDNA3. Four to five days later, the cells were harvested, sonicated in HEPES, glycerol, DTE buffer and assayed for enzyme activity as described previously (Sherwood, A. L., et al., 1998, Arch. Biochem. Biophys. 355:215-221).

[2] = biological target: T2, catalytic domain of rat hepatoma H35 cell α1→2FucT (Rattus norvegicus, UniProt Q10984); assay: α1→2Fucosyltransferase assay, pPROTA-expressed catalytic domain on IgG-agarose beads, transfer of [14C]fucose to glycolipid acceptors (TLC); type: biochemical; conditions: 30 μg acceptor, 2 h at 37° C., 250 μg phosphatidylglycerol, GDP-[14C]fucose
T2 construct: made in house; host or cells: COS-7 cells (secreted fusion protein, captured on IgG-agarose)
T2 sequence (Q10984 28-380 isoform Q10984-2): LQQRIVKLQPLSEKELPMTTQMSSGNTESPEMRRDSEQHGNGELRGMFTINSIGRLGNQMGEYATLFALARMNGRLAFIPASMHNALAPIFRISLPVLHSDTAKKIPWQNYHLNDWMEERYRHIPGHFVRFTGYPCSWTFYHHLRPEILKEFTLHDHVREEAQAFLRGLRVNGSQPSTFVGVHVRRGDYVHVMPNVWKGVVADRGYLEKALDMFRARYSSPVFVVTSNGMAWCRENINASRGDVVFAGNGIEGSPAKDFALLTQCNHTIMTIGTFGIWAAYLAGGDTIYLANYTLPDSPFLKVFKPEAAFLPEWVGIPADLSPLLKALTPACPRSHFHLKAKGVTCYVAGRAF
Experimental: For example, as illustrated in Section 6.3.2, infra, the activity of α1→2fucosyltransferase coupled to the IgG-binding domain of Protein A can be determined in reaction mixtures containing 2.5 μmol of HEPES buffer, pH7.2, 30 μg of GM1. ganglioside or nLc4, 250 μg phosphatidylglycerol, 1 μmol of MnCl2, 0.5 μmol of CDP-choline, 15 nmol of GDP-[^14C]fucose (15,000 cpm/nmol), and bound to IgG-agarose beads in a total volume of 0.1 ml. The reaction mixtures are incubated for 2 h at 37° C., terminated by the addition of 0.1 ml of CHCl3:CH3OH (2:1), streaked onto 4-cm-wide strips of Whatman 3 paper and developed with water overnight. The papers are dried and the labeled product extracted from the origins with 2- to 5-ml washes of CHCl3:CH3OH:H2O (10:5:1). The combined eluates are concentrated to dryness by an N2 stream and dissolved in 20 μl of CHCl3:CH3OH (2:1). A 10-μl aliquot of each is spotted onto a HP-TLC plate (Merck)and developed in a solvent system composed of CHCl3:CH3OH:H2O (60:40:9), 0.02% CaCl2.2H2O. […]
α1→2Fucosyltransferase activity was determined in reaction mixtures containing 2.5 μmol of HEPES buffer, pH7.2, 30 μg of GM1 ganglioside or nLc4, 250 μg phosphatidylglycerol, 1 μmol of MnCl2, 0.5 μmol of CDP-choline, 15 nmol of GDP-[^14C]fucose (15,000 cpm/nmol), and pPROTA-expressed enzyme bound to IgG-agarose beads in a total volume of 0.1 ml. […]

[3] = biological target: T3, recombinant rat α1→2fucosyltransferase (Rattus norvegicus, UniProt Q10984); assay: Preparative in vitro biosynthesis of fucosyl-GM1 with homogenate of COS-7 cells expressing rat α1→2fucosyltransferase (HPTLC); type: biochemical; conditions: 0.5 mg GM1, 2 mg crude cell homogenate, after 24 to 48 hours
T3 construct: Full length α1→2FucT cDNA was then cloned into pcDNA 3 vector; expressed in transfected cells; host or cells: COS-7 cells, transient transfection, sonicated homogenate
T3 sequence (Q10984 1-380 isoform Q10984-2): T1 sequence (Q10984 1-380 isoform Q10984-2)
Experimental: Preparative biosynthesis of fucosyl-GM1 was conducted in reaction mixtures composed of 25 μmol of HEPES buffer, pH 7.2, 10 μmol of MnCl2, 500 μg CHAPSO, 0.5 mg GM1, and 2 mg crude cell homogenate of COS-7 cells transiently transfected with plasmid containing the entire rat α1→2fucosyltransferase coding sequence in a total volume of 0.5 ml. Progress of the reaction was followed with time by withdrawing 2 μl of the reaction mixture and spotting it on an HPTLC plate. The plate was developed in a solvent system composed of CHCL3:CH3OH:H2O, 60:40:9, containing 0.02% CaCl2. Glycolipid bands were determined by orcinol spray (FIG. 9).

| Compound | transfer to GM1 in the presence of additive, compared with no detergent or phospholipid [1] | transfer of fucose to acceptor [2] | also measured |
| --- | --- | --- | --- |
| CC(=O)Nc1ccc2c(c1)Cc1ccccc1-2 [AAF, N-2-acetylaminofluorene] |  |  | α1→2FucT enzyme activity in liver (α1→2FucT): moderate level |
| C[C@H](CCC(=O)NCCC[N+](C)(C)CC(O)CS(=O)(=O)[O-])[C@H]1CC[C@H]2[C@@H]3[C@H](O)C[C@@H]4C[C@H](O)CC[C@]4(C)[C@H]3C[C@H](O)[C@]12C (stereo partly shown) [CHAPSO] | Comparable transfer |  |  |
| II^3NeuAcGg4 [GM1] |  | transfer fucose to GM1 | transfer of fucose to GM1 by full length enzyme ([1]; two hours at 37° C.): transfers fucose to GM1 with high efficiency; conversion of GM1 to fucosyl-GM1 [3]: almost complete conversion |
| lactoneotetraosylceramide [nLcOse4Cer] |  | No detectable transfer |  |
| phosphatidylglycerol | Somewhat less transfer |  |  |
